In the NIST ThermoML archive (doi:10.1021/je100927m):

Experiments:
[1] = Liquid; for mass density: 101.33 kPa; for speed of sound: Pulse-echo method
[2] = refractive index (Na D-line) (dimensionless); details: 298.15 K; 101.33 kPa; Liquid; Standard Abbe refractometry

CCCCC(CC)CO (stereo unspecified) [2-ethyl-1-hexanol]
[1]
Details	mass density [kg/m3]
283.15 K	839.89
288.15 K	836.26
293.15 K	832.62
298.14 K	828.96
303.15 K	825.28
308.15 K	821.58
313.14 K	817.86
318.15 K	814.11
323.15 K	810.33
328.15 K	806.52
333.15 K	802.68
338.14 K	798.8
343.15 K	794.87
348.15 K	790.91
353.15 K	786.89
358.15 K	782.83
363.15 K	778.72

speed of sound [m/s], [1]
Details	101 kPa	15200 kPa	30390 kPa	45590 kPa	60790 kPa	75990 kPa	91180 kPa	101320 kPa
292.89 K	–	1418.5	1487.2	1549.6	1607.2	1660.4	1710.5	1742
293.15 K	1336.3	–	–	–	–	–	–	–
298.15 K	1318.4	–	–	–	–	–	–	–
298.19 K	–	1400.2	1470.1	1533.2	1591.5	1645.4	1696	1728
303.15 K	1300.6	1383.5	1454.4	1518.4	1577.5	1631.8	1682.7	1715.1
308.13 K	–	1367.2	1438.9	1503.8	1563.5	1618.6	1669.8	1702.5
308.15 K	1282.8	–	–	–	–	–	–	–
313.1 K	–	1351.2	1424	1489.6	1549.7	1605.5	1657.2	1689.9
313.15 K	1264.9	–	–	–	–	–	–	–
318.15 K	1247.1	–	–	–	–	–	–	–
318.26 K	–	1334.8	1408.8	1475.2	1535.9	1592.2	1644.5	1677.4

Details	refractive index
[2]	1.4292
